Source: patent US20260248771A1, “VALBENAZINE, A VMAT2 INHIBITOR, AS A FREE BASE A TOSYLATE OR DITOSYLATE SALT, FOR USE IN THE TREATMENT OF CHOREA ASSOCIATED WITH HUNTINGTON'S DISEASE” (Neurocrine Biosciences, Inc., priority 2022, published 2026)

Legend:
Assay type in all cases: in vivo, human
subjects with HD [1] = test: Phase 3 study: Neuro-QoL Lower Extremity Function T-score
Description: As used herein, “Neuro-QoL” is a set of self-report measures that assesses the health-related quality of life (HRQOL) of adults and children with neurological disorders. Neuro-QoL Upper Extremity Function scale measures one's ability across fine motor and activities of daily living involving digital, manual and reach-related function and self-care. Neuro-QoL Lower Extremity Function scale measures one's ability to carry out various activities involving the trunk region and increasing degrees of bodily movement, ambulation, balance or endurance. See, National Institute of Neurological Disorders and Stroke (NINDS). User Manual for the Quality of Life in Neurological Disorders (Neuro-QoL) Measures, Version 2.0, March 2015, which is incorporated herein by reference in its entirety.
A Phase 3, randomized, double-blind, placebo-controlled study to evaluate the efficacy, safety, and tolerability of once-daily valbenazine in subjects with HD was conducted. The study included a 4-week screening period, an 8-week dose-adjustment period, a 4-week maintenance period, and a final study visit 2 weeks following the final dose of study drug. […]

subjects with HD [2] = test: Phase 3 study: Short Form 36 Health Survey (SF-36); details: Week 12
Description: (§1) Exploratory endpoints included: • Wearable movement sensors (in select sites; optional participation) using MC10 Inc., BIOSTAMP® NPOINT® system • Huntington Disease Health Index • Changes from the screening period baseline to each postbaseline study visit (Weeks 2 through 12) in the TMC based on site assessments • Changes from the screening period baseline to maintenance (the average of the Week 10 and Week 12 assessments) in the TMC based on video recording central rater assessments • CGI-C response at Weeks 2 through 10 • PGI-C response at Weeks 2 through 10 • The change from baseline to Weeks 4, 8, and 10 in the Neuro-QoL Upper Extremity Function T-score. • The change from baseline to Weeks 4, 8, and 10 in the Neuro-QoL Lower Extremity Function T-score • CGI-S at Weeks 2 through 12 • PGI-S at Weeks 2 through 12 • SF-36 at Week 12 • HD-HI at Week 10 and Week 12 • EQ-5D-5L at Week 10 and Week 12 • UHDRS scores for motor, behavior, and functional capacity assessment at Weeks 2 through 12 • Other UHDRS scores including functional assessment and independence scale at Week 12 • AS at Week 12 • Change from screening period in physical activity by movement sensors at the Week 10 visit period
The SF-36 is 36-item questionnaire that measures health on 8 dimensions. […]

subjects with HD [3] = test: Phase 3 study: UHDRS functional assessment, independence scale, total functional capacity; details: baseline to Week 12; either treatment group
Description: as §1
The functional capacity portion of the UHDRS consists of 5 items. […]

subjects with HD [4] = test: Phase 3 placebo-controlled study: UHDRS total maximal chorea (TMC) score; details: for TMC score LS mean difference between treatment groups (valbenazine minus placebo): change from screening period baseline
Description: As used herein, “Unified Huntington Disease Rating Scale” or “UHDRS” is the standard clinical assessment tool in Huntington disease. The UHDRS is divided into four domains: motor performance, cognitive function, behavioral abnormalities, and functional abilities. The motor section consists of 31 items assessing oculomotor, bradykinesia/rigidity, dystonia, chorea, and gait/balance. The items are rated from zero to four, with zero indicating normal findings and four indicating severe abnormalities. The range of the Total Motor Score (TMS) is 0 to 124, with higher scores indicating more severe motor impairment. The cognitive component includes the verbal fluency test, the symbol digit modalities test, and the Stroop test (color naming, word reading, and interference). Lower scores indicate worse cognitive performance. The behavioral assessment measures the frequency and severity of 11 items, which are rated from zero (almost never/absent) to four (almost always/severe). The items assess depression, anxiety, aggression, psychosis, and other behavioral abnormalities. The behavioral score ranges from 0 to 88, with higher scores indicating more severe psychiatric abnormalities. The functional domain comprises three components, namely the total functional capacity (TFC), the functional assessment scale (FAS), and the independence scale (IS). The TFC consists of five items (occupation, finances, domestic chores, activities of daily living, and care level) and ranges from 0 to 13. The FAS includes 25 yes/no questions about common daily tasks (range 0-25). The Independence Score (IS) measures the level of independence by one single score between 10 and 100. For all functional scores, lower scores indicate a worse function. See, Huntington Study Group, Unified Huntington Disease Rating Scale: reliability and consistency. Mov Disord. 1996; 11:136-142, which is incorporated by reference in its entirety.
A Phase 3, randomized, double-blind, placebo-controlled study to evaluate the efficacy, safety, and tolerability of once-daily valbenazine in subjects with HD was conducted. The study included a 4-week screening period, an 8-week dose-adjustment period, a 4-week maintenance period, and a final study visit 2 weeks following the final dose of study drug.
Valbenazine was supplied as orally administered capsules containing 20 or 40 mg of valbenazine (free base equivalents as the ditosylate salt). Subjects must swallow the capsules with approximately 4 ounces of water or other liquid, with or without food.
During the dose-adjustment period, the investigator could increase a subject's dose to the next dose level if, in the investigator's opinion, the subject has tolerated the study drug at the current dose. Doses were adjusted in a blinded manner; subjects receiving placebo will undergo the dose-adjustment process but will continue to receive placebo. Dose increases were allowed at visits at the end of Weeks 2, 4, and 6. If the subject had not tolerated the current dose, the investigator could decrease the subject's dose at any time during the dose adjustment period (the 40 mg dose can be decreased to 20 mg). Doses were to be decreased 1 dose level at a time and subjects could have multiple dose decreases during the dose-adjustment period; subjects who were unable to tolerate the 20 mg dose could remain in the study but study drug dosing was discontinued.
During the maintenance period (beginning after the Week 8 visit through the end of Week 12), the subject's dose was maintained. If the subject could not tolerate the maintenance dose, the investigator could reduce the subject's dose a single time by 1 dose level (unless the subject is receiving 20 mg); if the subject could not tolerate the lower dose, he/she could remain in the study but study drug dosing was discontinued.
The primary endpoint for the study was change from baseline to maintenance in the Unified Huntington Disease Rating Scale total maximal chorea (TMC). […]

COc1cc2c(cc1OC)[C@H]1C[C@@H](OC(=O)[C@@H](N)C(C)C)[C@H](CC(C)C)CN1CC2 [Valbenazine, (S)-2-amino-3-methyl-butyric acid (2R,3R,11bR)-3-isobutyl-9,10-dimethoxy-1,3,4,6,7,11b-hexahydro-2H-pyrido[2,1-a]isoquinolin-2-yl ester]
Neuro-QoL Lower Extremity Function T Score CFB @ week 12, LS Mean (subjects with HD [1]; valbenazine group): −0.27 | Neuro-QoL Lower Extremity Function T Score CFB @ week 12, LS Mean, Difference (subjects with HD [1]; valbenazine vs placebo): −0.88 | SF-36 subscales and summary scales, differences between treatment groups (subjects with HD [2]): No notable differences were observed at Week 12 between treatment | SF-36 subscales or summary scales, worsening from baseline (subjects with HD [2]; valbenazine group): No worsening from baseline was observed for the valbenazine group | UHDRS functional assessment, independence, and total functional capacity scores, changes from baseline (subjects with HD [3]): No clinically meaningful changes were noted from baseline to Week | onset of improvement of chorea symptoms (TMC by study visit) (subjects with HD [4]; FIG. 4, post-hoc analysis vs placebo): noted as early as week 2 | TMC score LS mean difference between treatment groups (valbenazine minus placebo) (subjects with HD [4]; Week 2, on-site assessments): minus placebo) were as follows: Week 2 (−1.26 [95% CI: −2.18, −0.34], | TMC score LS mean difference between treatment groups (valbenazine minus placebo) (subjects with HD [4]; Week 4, on-site assessments): nominal p = 0.0077), Week 4 (−2.05 [95% CI: −3.12, −0.98], | TMC score LS mean difference between treatment groups (valbenazine minus placebo) (subjects with HD [4]; Week 6, on-site assessments): nominal p = 0.0002), Week 6 (−1.69 [95% CI: −2.83, −0.55], nominal | TMC score LS mean difference between treatment groups (valbenazine minus placebo) (subjects with HD [4]; Week 8, on-site assessments): p = 0.0041), Week 8 (−2.29 [95% CI: −3.46, −1.13], nominal | TMC score LS mean difference between treatment groups (valbenazine minus placebo) (subjects with HD [4]; Week 10, on-site assessments): p = 0.0002); Week 10 (−3.10 [95% CI: −4.36, −1.84], nominal | TMC score LS mean difference between treatment groups (valbenazine minus placebo) (subjects with HD [4]; Week 12, on-site assessments): p < 0.0001), and Week 12 (−3.22 [95% CI: −4.53, −1.91], nominal | placebo-adjusted mean reduction in TMC score (subjects with HD [4]; baseline to maintenance, vs placebo): 3.2 units | LS mean change from screening period baseline to maintenance in TMC scores (subjects with HD [4]; central video rater assessments, valbenazine group): in TMC scores as assessed by the central video raters was −3.51 | TMC score treatment difference, screening period baseline to maintenance (subjects with HD [4]; central video rater assessments, valbenazine vs placebo): of −2.59 (95% CI: −3.76, −1.41); p < 0.0001 (nominal), and was consistent | TMC CFSPB @ Maintenance, LS Mean (subjects with HD [4]; change from screening period baseline to maintenance (average of Week 10 and Week 12), on-site assessments, once-daily valbenazine up to 80 mg, N=64): −4.6 | TMC CFSPB @ Maintenance, LS Mean, Difference (subjects with HD [4]; valbenazine vs placebo, on-site assessments): −3.16
